Data set [1] concerns Hs27 cells. Nature of the data set: Cytotoxicity assay (CellTiter 96 AQueous One) on Hs27. Format: cell-based, human. The settings on record: for viability: Hs27, 24 h, dose 0 = 100.00, read-out: Growth inhibition data; for GI50: Hs27 cells, 24 h treatment. Here is the method: The best antifungal and/or antiaflatoxigenic compounds were tested to determine their cytotoxic activity against human normal cell lines deriving from lung (HFL1, ATCC and CCL-153), skin (Hs27, ATCC, CRL1634) and colon (Crl1790, ATCC, CCD 841 CoN) and a cell line deriving from a hematological tumor (U937, ATCC and CRL-3253). These different cell lines have been chosen to simulate the different human exposition routes to pesticide. Cell culture conditions have been previously reported. Compound cytotoxicity was determined using CellTiter 96® AQueous One Solution Cell Proliferation Assay (Promega Corporation, Madison, WI, USA). The very detailed protocol was described by Bartoli et al.. In brief, cells were seeded in a 96-well plate at a density of 5000 cells/well and after 24 h cells were treated with different concentrations of the compounds (0.5–1–5–10–50–100 µM). After the treatment period (24 h), the CellTiter Reagent was added to each well (20 µL/well) and the plate incubated for 4 h at 37 °C. The plate was then read at 485 nm in a multiwell plate reader (TECAN SpectraFluor Plus, Männedorf, Switzerland).

Data set [2] concerns A. flavus. Nature of the data set: microbe, parasite or virus in culture. It is filed as cell-based, Aspergillus flavus. The settings on record: for inhibition at 100 µM: Aspergillus flavus, read-out: G.I. (%) (A. flavus growth inhibition).
The test system of data set [3] is aflatoxin accumulation by A. flavus. Briefly: microbe, parasite or virus in culture. Format: cell-based, Aspergillus flavus.
Data set [4] concerns A. cepa root cells. The settings on record: for DNA damage as chromosomal aberrations in Allium root cells: 10.0 µM. Here is the method:
To detect micronuclei and chromosomal aberrations six equal-sized pre-germinated young bulbs per sample were exposed for 24 h to sample dilutions. The bulbs dedicated to the micronuclei test underwent an additional treatment in the saline solution for 44 h of recovery time to cover two rounds of mitosis so that damage induced in chromosomes during mitosis to be visible as micronuclei in interphase cells. Then all the roots were fixed in acetic acid and ethanol (1:3) for 24 h and lastly stored in 70% ethanol. The negative control was DMSO in Rank’s solution (the dose of DMSO corresponding to volume of samples) and positive control was maleic hydrazide (10^−2 M, 6 h exposure). […] All experiments were performed in duplicate.

In data set [5] the test system is S. typhimurium TA98 and TA100 strains. Briefly: Ames test, overall mutagenicity verdict in bacteria. The settings on record: TA98 and TA100, -S9 and +S9. For orientation: In the Ames test, an excess of revertant colonies over the control signals mutagenicity.
In data set [6] the test system is A. cepa. Briefly: A. cepa toxicity test (root length). Format: in vivo, Allium cepa. Particulars: in vivo. Here is the method:
A. cepa toxicity test: Twelve equal-sized young onion bulbs were exposed for 96 h in the dark to different concentrations of compounds dissolved in DMSO, changing the sample solution every day. […] Root macroscopic parameters such as turgescence, consistency, change in color and root tip shape, were used as toxicity indexes.

[7] abbreviates: Aspergillus flavus, read-out: A.I. (%) (aflatoxin accumulation inhibition).

Where two headings read alike, the source gives them in different places.

The GI50 is the concentration at which growth is held to half of that of the control. As for “Bis(2-acetylfuranthiosemicarbazonato) zinc(II) [2-acfurTS-Zn]”, the viability was found to be 100 ± 7.72% in data set [1] (0.5 µM); 100 ± 7.88% in data set [1] (1 µM); 100 ± 7.7% in data set [1] (5 µM); 100 ± 12.7% in data set [1] (10 µM); 16.5 ± 0.62% in data set [1] (50 µM); 15.2 ± 0.73% in data set [1] (100 µM). For the same molecule, the GI50 in data set [1] was 30.5 µM. Further, the “impact on fungal growth compared with the ligand” value in data set [2] (100 µM) was “slightly less effective”.

Take `CN(C)C(=S)NN=Cc1ccccc1` [benzaldehyde 4,4'‐dimethyl thiosemicarbazone]: the “A.I. (%) (aflatoxin accumulation inhibition)” value in data set [3] (50 µM) is given as 76,0%; in data set [3] (100 µM), 90,0%. The “mitotic index / interference with cell division” value in data set [4] (respect to the control) is on record as “lower mitotic index”. Further, in data set [5], the “mutagenicity in bacteria” value is “without showing any mutagenic effect”.

For the molecule `CN(N=CC=Cc1ccccc1)C(N)=S` [Cinnamaldehyde 2‐methyl thiosemicarbazone], the “A.I. (%) (aflatoxin accumulation inhibition)” value in data set [3] (100 µM) was 64,0%. Moreover, the “DNA damage as chromosomal aberrations in Allium root cells” value (shortened to “DNA damage as chromosomal aberrations”) in data set [4] is given as “induced DNA damage as chromosomal aberrations”.

Regarding “Bis(2-acetylfuranthiosemicarbazonato) copper(II) [2-acfurTS-Cu]”, the viability worked out at 92.8 ± 5.53% in data set [1] (0.5 µM); 99.4 ± 4.63% in data set [1] (1 µM); 98.9 ± 12.1% in data set [1] (5 µM); 100 ± 5.93% in data set [1] (10 µM); 36.9 ± 6.49% in data set [1] (50 µM); 35.6 ± 1.89% in data set [1] (100 µM). Besides, halving of growth in data set [1] (GI50) required 39 µM. In addition, the “A.I. (%) (aflatoxin accumulation inhibition)” value in data set [3] (100 µM) is 65,7%. Moreover, in data set [2] (100 µM), the “G.I. (%) (A. flavus growth inhibition)” value is 63,4%. Moreover, the “impact on fungal growth” value in data set [2] (10 to 100 µM, complexes compared with their ligand) was “higher fungistatic activity”.

Turning to `CCCCC(=NNC(N)=S)c1ccccc1` [Valerophenone thiosemicarbazone], the “A.I. (%) (aflatoxin accumulation inhibition)” value in data set [3] (100 µM) was 55,0%. Further, the “G.I. (%) (A. flavus growth inhibition)” value in data set [2] (100 µM) is recorded as 54,0%. For the same molecule, in data set [4], the “DNA damage as chromosomal aberrations” value is recorded as “induced DNA damage as chromosomal aberrations”.

“Bis(2-acetylthiophenethiosemicarbazonato) zinc(II) [2-actpTS-Zn]”: the viability in data set [1] (0.5 µM) was found to be 91.6 ± 7.33%; in data set [1] (1 µM) it was 94.3 ± 2.25%; in data set [1] (5 µM) it was 81.9 ± 5.34%; in data set [1] (10 µM) it was 60.1 ± 1.57%; in data set [1] (50 µM), 15.5 ± 0.56%; in data set [1] (100 µM) it was 16 ± 1.39%. Besides, the GI50 in data set [1] is 15.4 µM. The “A.I. (%) (aflatoxin accumulation inhibition)” value in data set [3] (50 µM) is given as 60,4%; in data set [3] (100 µM), 85,4%.

For the molecule Cu(II) apocynin bisthiosemicarbazonate, the “A.I. (%) (aflatoxin accumulation inhibition)” value was 52,0% in data set [3] (50 µM) and 72,0% in data set [3] (100 µM). For the same molecule, the “G.I. (%) (A. flavus growth inhibition)” value in data set [2] (50 µM) was 61,0%; in data set [2] (100 µM) it was 72,0%.

What is called inhibition is the relative decrease from the control value, in per cent. Turning to `NC(=S)N/N=C\C=C\c1ccccc1` [Cinnamaldehyde thiosemicarbazone], in data set [3] (setting [7]), the inhibition at 50 µM was 73.1% and the inhibition at 100 µM worked out at 79%. Besides, the inhibition at 100 µM in data set [2] (100 µM) is 56%.

In the case of “Ni(II) citronellal bisthiosemicarbazonate”, the “A.I. (%) (aflatoxin accumulation inhibition)” value in data set [3] (100 µM) is 82,1%. In addition, in data set [2] (100 µM), the “G.I. (%) (A. flavus growth inhibition)” value is on record as 58,9%.

As to `CCCCCCCC=NNC(N)=S` [Octanal thiosemicarbazone], the “A.I. (%) (aflatoxin accumulation inhibition)” value in data set [3] (50 µM) is recorded as 76,0%; in data set [3] (100 µM) it was 96,0%. In addition, the figures for the “G.I. (%) (A. flavus growth inhibition)” value in data set [2] (50 µM) and in data set [2] (100 µM) were 82,0% and 93,0%, respectively.

Consider `CCCCCCCCC=NNC(N)=S` [Nonanal thiosemicarbazone], for which the “A.I. (%) (aflatoxin accumulation inhibition)” value is reported as 91,0% in data set [3] (50 µM) and 100% in data set [3] (100 µM). The “G.I. (%) (A. flavus growth inhibition)” value in data set [2] (50 µM) is given as 95,0%; in data set [2] (100 µM), 100%.

Cu(II)undecanal bisthiosemicarbazonate: the “A.I. (%) (aflatoxin accumulation inhibition)” value is reported as 84,8% in data set [3] (50 µM) and 96,0% in data set [3] (100 µM). Further, the results for the “G.I. (%) (A. flavus growth inhibition)” value in data set [2] (50 µM) and in data set [2] (100 µM) were 60,4% and 94,0%, respectively.

Turning to “Cu(II) 2‐isopropyl benzaldehyde‐2‐methyl‐thiosemicarbazone di acetate”, the entries for the “A.I. (%) (aflatoxin accumulation inhibition)” value in data set [3] (50 µM) and in data set [3] (100 µM) were 71,4% and 86,7%, respectively. In addition, the “G.I. (%) (A. flavus growth inhibition)” value in data set [2] (50 µM) is on record as 90,0%; in data set [2] (100 µM) it was 95%.

For `NC(=S)NNC(=O)c1ccc2c(c1)C(=O)c1ccccc1C2=O` [Anthraquinone‐2‐carbonyl‐1‐thiosemicarbazide], the “G.I. (%) (A. flavus growth inhibition)” value in data set [2] (100 µM) is 58,0%. In addition, in data set [5], the “mutagenicity in bacteria” value was “slight mutagenic activity”.

On to “Mn(II) 2‐acetylthiophene bisthiosemicarbazonate”, for which the results for the “A.I. (%) (aflatoxin accumulation inhibition)” value in data set [3] (50 µM) and in data set [3] (100 µM) were 61,0% and 92,0%, respectively. The “G.I. (%) (A. flavus growth inhibition)” value in data set [2] (100 µM) is recorded as 53,0%.

For the molecule `O=C(O)c1ccc2c(c1)C(=O)c1ccccc1C2=O` [Anthraquinone‐2‐carboxylic acid], the “A.I. (%) (aflatoxin accumulation inhibition)” value in data set [3] (50 µM) is on record as 56,0%; in data set [3] (100 µM), 80,0%. Moreover, the “DNA damage as chromosomal aberrations” value in data set [4] is recorded as “induced DNA damage as chromosomal aberrations”. Moreover, the “effect on A. cepa root length” value in data set [6] is on record as “reduction of A. cepa root length”.

For “Zn(II) Cinnamaldehyde bisthiosemicarbazonate”, the “A.I. (%) (aflatoxin accumulation inhibition)” value in data set [3] (50 µM) was 99,0%; in data set [3] (100 µM), 100%. Moreover, the “G.I. (%) (A. flavus growth inhibition)” value in data set [2] (50 µM) is on record as 56,0%; in data set [2] (100 µM), 76,0%.

Consider “Bis(2-acetylthiophenethiosemicarbazonato) copper(II) [2-actpTS-Cu]”, for which the viability in data set [1] (0.5 µM) stood at 90.7 ± 4.69%; in data set [1] (1 µM), 87.1 ± 3.53%; in data set [1] (5 µM), 72.1 ± 3.35%; in data set [1] (10 µM), 16.2 ± 0.84%; in data set [1] (50 µM), 14.6 ± 0.85%; in data set [1] (100 µM), 15 ± 0.2%. Besides, in data set [1], growth was halved (GI50) at 6.2 µM. In addition, the results for the “A.I. (%) (aflatoxin accumulation inhibition)” value in data set [3] (50 µM) and in data set [3] (100 µM) were 56,5% and 88,6%, respectively.

On to `CC(C)c1cccc(C=NN(C)C(N)=S)c1` [3‐isopropyl benzaldehyde‐2‐methyl‐thiosemicarbazone], for which the “A.I. (%) (aflatoxin accumulation inhibition)” value in data set [3] (100 µM) is reported as 62,7%. For the same molecule, the “G.I. (%) (A. flavus growth inhibition)” value in data set [2] (100 µM) is reported as 70,6%.

As for `CN(C)C(=S)NN=CC=Cc1ccccc1` [Cinnamaldehyde 4,4‐dimethyl thiosemicarbazone], the “A.I. (%) (aflatoxin accumulation inhibition)” value in data set [3] (50 µM) and in data set [3] (100 µM) was 100% throughout. The “effect on A. cepa root length” value in data set [6] was “reduction of A. cepa root length”. In addition, the “mutagenicity in bacteria” value in data set [5] is given as “slight mutagenic activity”.

As for `CCCCCCCCCC=NNC(N)=S` [Decanal thiosemicarbazone], the “A.I. (%) (aflatoxin accumulation inhibition)” value in data set [3] (100 µM) is 62,0%. For the same molecule, the “G.I. (%) (A. flavus growth inhibition)” value in data set [2] (50 µM) and in data set [2] (100 µM) was 96,0% each time.

In the case of “Cu(II) Quinolinecarboxaldehyde bisthiosemicarbazonate”, the “A.I. (%) (aflatoxin accumulation inhibition)” value in data set [3] (50 µM) is 55,7%; in data set [3] (100 µM), 88,0. The “G.I. (%) (A. flavus growth inhibition)” value in data set [2] (100 µM) is listed as 60,7%.

Take `O=Cc1ccc2c(c1)C(=O)c1ccccc1C2=O` [2‐Formylanthraquinone]: the inhibition at 100 µM in data set [2] (100 µM) came to 58%. Also, the “DNA damage as chromosomal aberrations” value in data set [4] is recorded as “induced DNA damage as chromosomal aberrations”.

In the case of Plumbagin thiosemicarbazone, the “A.I. (%) (aflatoxin accumulation inhibition)” value in data set [3] (100 µM) is reported as 83,0%. Besides, in data set [2] (100 µM), the “G.I. (%) (A. flavus growth inhibition)” value is given as 61,9%.

Turning to Cu(II) bisvanillin thiosemicarbazonate, the “A.I. (%) (aflatoxin accumulation inhibition)” value in data set [3] (50 µM) is on record as 53,0%; in data set [3] (100 µM), 77,0%. In addition, the “G.I. (%) (A. flavus growth inhibition)” value in data set [2] (100 µM) is reported as 65,5%.

The values above are taken from article PMC8123576 (International Journal of Molecular Sciences, 2021).
